From patent publication US12415786B2, “Substituted 2-heteroarylaminobenzenes and the salts thereof and their use as herbicidal agents” (Bayer Aktiengesellschaft, priority 2019, dated 2025)

Experiments:
Type in all cases: in vivo
Agrostis tenuis = test: Herbicidal early post-emergence action (96-well microtiter plates), AGSTE; settings: 1900 g/ha, scored 9 to 12 days after treatment, 100% = plants have died, 0% = like untreated control plants
Description: (§1) In the examples and tables below, the following abbreviations are used: • Undesired Plants/Weeds: • ABUTH: Abutilon theophrasti • AGSTE: Agrostis tenuis • AMARE Amaranthus retroflexus • ECHCG: Echinochloa crus-galli • LOLRI: Lolium rigidum • MATIN: Matricaria inodora • POAAN: Poa annua • SETVI: Setaria viridis • STEME: Stellaria media A. Herbicidal Early Post-Emergence Action Seeds of monocotyledonous and dicotyledonous weed plants were placed in 96-well microtiter plates in quartz sand and grown in a climatized chamber under controlled growth conditions. 5 to 7 days after sowing, the test plants were treated at the cotyledon stage. The compounds according to the invention, formulated in the form of emulsion concentrates (EC), were applied with a water application rate of the equivalent of 2200 liters per hectare. After the test plants had been left to stand in the climatized chamber for 9 to 12 days under optimum growth conditions, the effect of the preparations was scored visually in comparison to untreated controls. Here, for example, 100% activity=the plants have died, 0% activity=like untreated control plants. Tables A1 to A2 below show the effects of selected compounds of the general formula (I) according to Table 1 above on various harmful plants and an application rate corresponding to 1900 g/ha, which were obtained by the experimental procedure mentioned above.

Poa annua [1] = test: Herbicidal early post-emergence action (96-well microtiter plates), POAAN; settings: 1900 g/ha, scored 9 to 12 days after treatment, 100% = plants have died, 0% = like untreated control plants
Description: as §1

Poa annua [2] = test: Herbicidal post-emergence action (greenhouse pots), POAAN; settings: 1280 g/ha, visual rating about 3 weeks after treatment vs untreated controls
Description: (§2) In the examples and tables below, the following abbreviations are used: • Undesired Plants/Weeds: • ABUTH: Abutilon theophrasti • AGSTE: Agrostis tenuis • AMARE Amaranthus retroflexus • ECHCG: Echinochloa crus-galli • LOLRI: Lolium rigidum • MATIN: Matricaria inodora • POAAN: Poa annua • SETVI: Setaria viridis • STEME: Stellaria media A. Herbicidal Early Post-Emergence Action Seeds of mono- and dicotyledonous weed plants were placed in plastic pots in sandy loam soil (doubly sown with in each case one species of mono- or dicotyledonous weed plants per pot), covered with soil and cultivated in a greenhouse under controlled growth conditions. 2 to 3 weeks after sowing, the test plants were treated at the one-leaf stage. The compounds of the invention, formulated in the form of wettable powders (WP) or as emulsion concentrates (EC), were applied onto the green parts of the plants as aqueous suspension or emulsion with addition of 0.5% additive at a water application rate of 600 liters per hectare (converted). After the test plants had been kept in the greenhouse under optimum growth conditions for about 3 weeks, the activity of the preparations was rated visually in comparison to untreated controls. For example, 100% activity=the plants have died, 0% activity=like untreated control plants. Tables B1-B8 below show the effects of selected compounds of the general formula (I) according to Table 1 above on various harmful plants and an application rate corresponding to 1280 g/ha, which were obtained by the experimental procedure mentioned above.

Amaranthus retroflexus [3] = test: Herbicidal post-emergence action (greenhouse pots), AMARE; settings: 1280 g/ha, visual rating about 3 weeks after treatment vs untreated controls
Description: as §2

Stellaria media [4] = test: Herbicidal post-emergence action (greenhouse pots), STEME; settings: 1280 g/ha, visual rating about 3 weeks after treatment vs untreated controls
Description: as §2

Poa annua [5] = test: Herbicidal pre-emergence action (greenhouse pots), POAAN; settings: 1280 g/ha, visual scoring after about 3 weeks vs untreated controls
Description: (§3) In the examples and tables below, the following abbreviations are used: • Undesired Plants/Weeds: • ABUTH: Abutilon theophrasti • AGSTE: Agrostis tenuis • AMARE Amaranthus retroflexus • ECHCG: Echinochloa crus-galli • LOLRI: Lolium rigidum • MATIN: Matricaria inodora • POAAN: Poa annua • SETVI: Setaria viridis • STEME: Stellaria media A. Herbicidal Early Post-Emergence Action Seeds of mono- and dicotyledonous weed plants were placed in plastic pots in sandy loam soil (doubly sown with one species each of mono- or dicotyledonous weed plants per pot) and covered with soil. The compounds of the invention, formulated in the form of wettable powders (WP) or as emulsion concentrates (EC), were then applied onto the surface of the covering soil as aqueous suspension or emulsion with addition of 0.5% additive at a water application rate of 600 liters per hectare (converted). After the treatment, the pots were placed in a greenhouse and kept under good growth conditions for the test plants. After about 3 weeks, the effect of the preparations was scored visually in comparison with untreated controls as percentages. For example, 100% activity=the plants have died, 0% activity=like untreated control plants. Tables C1-C8 below show the effects of selected compounds of the general formula (I) according to Table 1 above on various harmful plants and an application rate corresponding to 1280 g/ha, which were obtained by the experimental procedure mentioned above.

Matricaria inodora = test: Herbicidal pre-emergence action (greenhouse pots), MATIN; settings: 1280 g/ha, visual scoring after about 3 weeks vs untreated controls
Description: as §3

Echinochloa crus-galli [6] = test: Herbicidal pre-emergence action (greenhouse pots), ECHCG; settings: 1280 g/ha, visual scoring after about 3 weeks vs untreated controls
Description: as §3

Setaria viridis [7] = test: Herbicidal pre-emergence action (greenhouse pots), SETVI; settings: 1280 g/ha, visual scoring after about 3 weeks vs untreated controls
Description: as §3

Amaranthus retroflexus [8] = test: Herbicidal pre-emergence action (greenhouse pots), AMARE; settings: 1280 g/ha, visual scoring after about 3 weeks vs untreated controls
Description: as §3

Stellaria media [9] = test: Herbicidal pre-emergence action (greenhouse pots), STEME; settings: 1280 g/ha, visual scoring after about 3 weeks vs untreated controls
Description: as §3

Echinochloa crus-galli [10] = test: Herbicidal post-emergence action (greenhouse pots), ECHCG; settings: 1280 g/ha, rated after about 3 weeks, 100% = plants have died, 0% = like untreated control plants
Description: as §2

Abutilon theophrasti = test: Herbicidal post-emergence action (greenhouse pots), ABUTH; settings: 1280 g/ha, visual rating about 3 weeks after treatment vs untreated controls
Description: as §2

Setaria viridis [11] = test: Herbicidal post-emergence action (greenhouse pots), SETVI; settings: 1280 g/ha, rated after about 3 weeks, 100% = plants have died, 0% = like untreated control plants
Description: as §2

SMILES	AGSTE (herbicidal activity, scored visually in comparison to untreated controls) (Agrostis tenuis)	POAAN (herbicidal activity, scored visually in comparison to untreated controls) (Poa annua [1])	herbicidal activity POAAN (Poa annua [2])	herbicidal activity AMARE (Amaranthus retroflexus [3])	herbicidal activity STEME (Stellaria media [4])	herbicidal activity POAAN (Poa annua [5])	herbicidal activity MATIN (Matricaria inodora)	herbicidal activity ECHCG (Echinochloa crus-galli [6])	herbicidal activity SETVI (Setaria viridis [7])	herbicidal activity AMARE (Amaranthus retroflexus [8])	herbicidal activity STEME (Stellaria media [9])	ECHCG (herbicidal activity, rated visually in comparison to untreated controls) (Echinochloa crus-galli [10])	herbicidal activity ABUTH (Abutilon theophrasti)	SETVI (herbicidal activity, rated visually in comparison to untreated controls) (Setaria viridis [11])
Cc1cccc(Nc2ncc(Cl)cn2)c1Oc1ccc(F)cc1 [Example 1-239]	80%	100%	100%	100%	100%	100%	100%	–	–	–	–	–	–	–
N#Cc1cccc(Nc2ncccn2)c1Oc1cccc(F)c1 [Example 1-247]	80%	–	–	100%	–	100%	–	90%	100%	100%	100%	–	–	–
N#Cc1cccc(Nc2ncccn2)c1Oc1ccc(C(F)(F)F)cc1 [Example 1-260]	100%	100%	–	100%	90%	90%	90%	90%	100%	100%	100%	–	–	–
N#Cc1cccc(Nc2ncc(F)cn2)c1Oc1cccc(F)c1 [Example 1-266]	80%	100%	–	100%	100%	100%	100%	90%	100%	100%	100%	100%	100%	–
N#Cc1cccc(Nc2ncc(F)cn2)c1Oc1ccc(F)cc1F [Example 1-270]	80%	80%	–	100%	100%	100%	100%	100%	100%	100%	100%	90%	90%	90%
N#Cc1cccc(Nc2ncc(F)cn2)c1Oc1ccc(Cl)cc1F [Example 1-275]	80%	100%	–	100%	100%	100%	90%	90%	100%	100%	100%	90%	90%	90%
N#Cc1cccc(Nc2ncc(Cl)cn2)c1Oc1ccc(Cl)cc1 [Example 1-288]	80%	80%	100%	100%	–	100%	–	90%	100%	100%	100%	100%	90%	90%
N#Cc1cccc(Nc2ncc(Cl)cn2)c1Oc1ccc(F)cc1F [Example 1-289]	80%	80%	–	100%	100%	100%	100%	–	100%	100%	100%	100%	90%	90%
N#Cc1cccc(Nc2ncc(Cl)cn2)c1Oc1ccc(C(F)(F)F)cc1 [Example 1-298]	80%	80%	90%	100%	100%	100%	90%	–	100%	100%	100%	–	90%	90%
Fc1ccc(Oc2ccccc2Nc2ncc(Cl)cn2)cc1 [Example 1-337]	100%	100%	–	90%	–	100%	–	–	–	90%	–	90%	90%	–
O=[N+]([O-])c1cccc(Nc2ncc(Cl)cn2)c1Oc1ccc(F)cc1 [Example 1-350]	80%	100%	100%	100%	–	100%	100%	–	–	100%	–	–	–	–
CC(=O)N(C)c1cccc(Nc2ncc(Cl)cn2)c1Oc1ccc(F)cc1 [Example 1-369]	80%	80%	100%	100%	–	–	–	–	100%	100%	100%	–	–	–
Fc1ccc(Oc2c(I)cccc2Nc2ncc(Cl)cn2)cc1 [Example 1-372]	100%	100%	100%	–	90%	–	–	–	100%	100%	–	–	–	–
